# From patent US20250304933A1, “INDUCIBLE RECOMBINASE SYSTEMS” (priority 2022, published 2025)
# What was measured:
# [1] = test system: DreSTAPL (Dre split with HCV-derived NS3 protease); test: DreStaPL recombination reporter assay in infected Lin- bone marrow (Rosa26:RLTG); format: cell-based, mice; settings: 10 μM
# Experimental: (§1) FIGS. 27A-27I show inducible recombinases for modeling Flt3 activation.
# (§2) MSCV retroviral vectors were transfected with pCL-Eco packaging vector into 293T-17 cells using JetPRIME following the manufacturers protocol (5 ug each, 1:1). Conditioned media was collected 72 hours later and passed through a 0.45 uM filter. Virus was either used fresh or stored at −80 C for later usage. For viral infection in FIG. 4 and Extended Data 8, lineage negative bone marrow was isolated using the Mouse Hematopoietic Progenitor Cell Isolation Kit (StemCell 19856) and plated over retronectin coated 6 or 12 well plates for 2 hours in RPMI+10% FBS supplemented with Penicillin/Streptomycin, 20 ng SCF, 10 ng IL6 and 10 ng IL3. Virus and 100×HEPES was added to the wells, then plates were spun for 1 hour at 800×G at 37 C. Following spin, small molecule ligands used to activate recombinases were added to a final concentration as indicated ethanol (v/v 0.0015%), DMSO (v/v 0.1%), 4-hydroxytamoxifen (4-OHT; 400 nM), trimethoprim (TMP; 1 uM) or grazoprevir (GZV, 10 uM). Cells were harvested for flow cytometric analysis 48 hours post infection. For viral infection followed by transplantation in Extended Data 8, a similar approach was utilized with the following modifications. Donor mice were treated with 5-FU 6 days prior to harvest. […]
# [2] = test system: FlpoDHFR in Npm1^Frt-C Flt3^Frt-ITD bone marrow; settings: FlpoDHFR delivered as a retrovirus in a transplant model
# Experimental: as §1, §2
# [3] = test system: mice transplanted with UbcCreER-Jak2^RL bone marrow exhibiting active MPN; test: 6-week in vivo drug trial in competitive transplant MPN mice; settings: for Hct / spleen weights (mean) / mutant cell fraction in LSK stem-cell enriched population (mean): conclusion of 6-week trial; for spleen weights (mean): ruxolitinib 60 mg/kg P.O. twice daily, CHZ868 30 mg/kg P.O. daily; for CD45.2 chimerism in peripheral blood: 6-week trial; for mutant cell fraction in LSK stem-cell enriched population (mean): bone marrow
# Experimental: (§3) Peripheral blood was isolated by submandibular bleeds.
# Investigators were not blinded to the identity of mice or samples. Mice were treated for a total of 6 weeks before timed sacrifice and marrow/spleen harvested as above.
# Jak2^V617F LSKs and MEPs = settings: 7 days of treatment; for down-regulation of STAT5 target gene expression, NES: vs MPN control
# Experimental: Lineage-depleted marrow was isolated and then TdTonmato+ (Jak2^RL knock-in) or GFP+ (Jak2^RL knock-out) LSKs and MEPs were sorted on a FACSAria III directly into Trizol LS (Invitrogen) and stored at −80° C. until processing. RNA was subsequently isolated using the Direct-Zol Microprep Kit (Zymo Research, R2061) according to manufacturer's protocol and quantified using the Agilent High Sensitivity RNA ScreenTape (Agilent 5067-5579) on an Agilent 2200 TapeStation. cDNA was generated from 1 ng of input RNA using the SMART-Seq HT Kit (Takara 634455) at half reaction volume followed by Nextera XT (Illumina FC-131-1024) library preparation. cDNA and tagmented libraries were quantified using High Sensitivity D5000 ScreenTape (5067-5592) and High Sensitivity D1000 ScreenTape respectively (5067-5584). Libraries were sequenced on a NovaSeq at the Integrated Genomics Operation (IGO) at MSKCC.
# Statistical analyses were performed using Student's t-test (normal distribution) using GraphPad Prism version 6.Oh (GraphPad Software, San Diego, CA). Kaplan-Meier curves were determined using the log-rank test. P<0.05 was considered statistically significant. The number of animals, cells and experimental replication can be found in the respective figure legends. FASTQ files were demultiplexed using a java script from Takara. FASTQ files were mapped and transcript counts were enumerated using STAR (genome version mm10 and transcript version ensembl XX). Counts were input into R and RNA-sequencing analysis using DESeq2. Gene set enrichment analysis was performed using the fgsea package with genesets extracted from the msigdbr package. Single sample gene set enrichment analysis was performed using the gsva package. Figures were generated using ggplot2 and tidyhetamps packages.
# [4] = test system: UbcCreER-Jak2^RL MPN mice; test: bone marrow myeloid progenitor frequencies by flow cytometry after 7 days of treatment; format: in vivo
# Ybx1 = Ybx1 quantitative RT-PCR in cKit+ bone marrow after 7 days of treatment; format: in vivo, mice; settings: sorted cKit+ cells
# Experimental: Total RNA was extracted from magnetic-bead isolated cKit+ bone marrow (Miltenyi Biotec) using the Direct-zol RNA extraction kit (Zymo) per manufacturers' protocols respectively. Complementary DNA was then reverse transcribed using the Verso cDNA Synthesis kit (ThermoFisher Scientific). Ybx1 expression was evaluated by quantitative reverse-transcription (qRT) PCR using Taqman probes purchased from ThermoFisher (Mm00850878_g1) on the RealPlex thermocycler (ThermoFisher Scientific, Fairlawn, NJ).
# [5] = test system: DreStaPL-ODC Flt3^GL-ITD mice; test: complete blood counts of DreStaPL-ODC x Flt3^GL-ITD mice after GZV; format: in vivo; settings: crossed to Flt3^GL-ITD, 6-8 weeks post treatment
# Experimental: Peripheral blood was isolated by submandibular bleeds. Complete blood counts were assessed on a ProCyte by IDEXX. For flow cytometry analysis whole blood was lysed with RBC lysis buffer (Biolegend). […] For whole bone marrow was isolation, the femur, hip and tibia were dissected and cleaned.
# [6] = test system: mice transplanted with Dre-electroporated Ubc:CreER-Jak2^RL bone marrow exhibiting MPN; test: Jak2^RL knock-in/knock-out competitive transplant, tamoxifen-induced Jak2^V617F deletion; format: in vivo; settings: within 3-6 weeks following tamoxifen treatment, vs MPN control
# Excerpt: as §3
# [7] = test system: Jak2^V617F/Tet2^f/f mutant cells; test: Jak2^V617F/Tet2^f/f competitive transplant, tamoxifen at 9 weeks post-transplant; format: in vivo, mice; settings: double-mutant cells
# Excerpt: Dre mRNA was purchased from TriLink Biotechnologies (San Diego, CA) and electroporation carried out using the Neon Transfection System (ThermoScientific) per the manufacturer's protocol. Specifically, bone marrow donor cells were isolated from limb bones into PBS (pH 7.2) containing 2% fetal calf serum via centrifugation. After red blood cell lysis, single-cell suspensions were depleted of lineage-committed hematopoietic cells using a Lineage Cell Depletion Kit according to manufacturer's protocol (EasySep™, StemCell Technologies, Inc.). 2.5-3.0×10^6 lineage-depleted bone marrow was then washed in PBS and then resuspended in 135 uL Buffer T to which 15 μL of Dre mRNA (at 1 μg/μL) was quickly added and electroporated at the following conditions: 1700V for 20 ms×1 pulse. The cells were then pipetted into penicillin-streptomycin free StemSpan SFEM medium with thrombopoietin (TPO; 20 ng/mL; PeproTech) and stem cell factor (SCF; 20 ng/mL; PeproTech), cultured for two hours, and then subsequently harvested and washed/resuspended in phosphate buffered saline (PBS) and transplanted via lateral tail vein injection into lethally irradiated (900cGy) 6-8 week old C57BL/6J recipient mice at approximately 4×10^5 cells per recipient along with 50,000 un-electroporated whole bone marrow support cells. […]
# [8] = test system: Npm1^c-Lox-Flt3^GL-ITD leukemia; test: long term TAM treatment of mice engrafted with Npm1^Lox-C Flt3^GL-ITD leukemia; format: in vivo; settings: TAM-chow diet
# Excerpt: FIGS. 19A-19H show reversible Flt3 mutagenesis in acute myeloid leukemia. Secondary transplant of Npm1^Lox-C Flt3^GL-ITD (20,000 cells) or Idh2^Lox-R140Q Flt3^GL-ITD (500,000) from FIGS. 18A-18E were engrafted into lethally irradiated secondary recipients with 500,000 CD45.1 WT cells. […]
# [9] = test system: mutant Npm1 GOLDI-Lox Nras^G12D disease; test: bone marrow transplant of Dre-induced mutant Npm1 GOLDI-Lox / Nras^G12D, TAM vs vehicle; format: in vivo; settings: compared to vehicle treated mice
# Experimental: FIGS. 30A-30D show the development of a GOLDI-Lox On/Off Dre/Cre Npm1 Mouse.
# A bone marrow transplant of a Dre-induced mutant Npm1 GOLDI-Lox expressing a co-mutant Nras^G12D allele immediately after Dre induction was performed, and mice were monitored for disease development (FIG. 30D, left panel). Upon development of disease, a cohort (n=5) of mice was treated with tamoxifen (TAM) to induce Cre and lead to reversion of the mutant Npm1 allele back to WT Npm1.
# [10] = test system: Cre-negative Jak2^RL MPN bone marrow cells; settings: mouse, in vivo
# Excerpt: FIGS. 9D-9E show total bone marrow (BM) cellularity (femur) (FIG. 9D) and Myeloid progenitor (Lineage−cKit+Sca1−) (FIG. 9E) frequencies of MPN (CTRL) vs. tamoxifen (TAM) treated mice transplanted with Cre-negative JAK2^RL knock-in cells in competition with CD45.1 support at timed sacrifice 15 weeks (n=3-4 each; mean±s.e.m).
# Jak2^RL and Jak2^RL/Tet2^f/f lines were crossed to UbcCreER tamoxifen-inducible Cre lines and RLTG dual-recombinase reporter lines.^17,24 Primary recipient mice transplanted with Dre mRNA-recombined UbcCreER-Jak2^RL or UbcCreER-Jak2^RL/Tet2^f/f bone marrow cells were bled every 3-4 weeks post-transplant to monitor disease status. Peripheral blood was isolated by submandibular bleeds. Complete blood counts were assessed on a ProCyte Dx (IDEXX Laboratories, Westbrook, ME) per manufacturer's instruction. […] To induce Cre and delete Jak2^V617F, mice were treated with tamoxifen (TAM; purchased from MedChemExpress) 100 mg/kg daily (dissolved in corn oil) by oral gavage ×4 followed by 14 days of TAM chow approx. 80 mg/kg daily (ENVIGO). […] For terminal tissue isolation, mice were euthanized with CO2 asphyxiation, and tissues were dissected and fixed with 4% paraformaldehyde for histopathological analysis. […] Bone marrow cell numbers were determined via an automatic cell counter (ViCell Blu, Beckman Coulter). […]
# [11] = test system: Npm1/Flt3-ITD cKIT+ cells; test: in vitro culture of cKIT+ leukemic cells with 4-OHT (PrestoBlue); format: cell-based, mice; settings: 72 hours of culture
# [12] = test system: Npm1GL hematopoietic cells; test: cell number of Dre-induced mutant Npm1 GOLDI-Lox hematopoietic cells after 4-hydroxytamoxifen; format: cell-based, mice; settings: 7 days post administration
# Experimental: FIGS. 30A-30D show the development of a GOLDI-Lox On/Off Dre/Cre Npm1 Mouse. […] A subset of diseased mice were then treated with tamoxifen (TAM) to induce Cre and lead to reversion of the mutant Npm1 allele back to WT Npm1; measured levels of survival (left panel), cKIT^+ cells in the peripheral blood (middle panel), and WBC counts (right panel) in mice that received TAM compared to vehicle treated mice are shown.
# Based on previous data on mutant NPM1, it was expected that cells that lose the mutant Npm1 protein undergo differentiation and eventual apoptosis, ultimately leading to a loss of cell number. To validate the reversion of the mutant Npm1 GOLDI-Lox allele to WT, Dre-induced mutant Npm1 GOLDI-Lox hematopoietic cells were exposed to 4-hydroxytamoxifen (40HT) for Cre-recombinase induction, and cell number measured 7 days post 40HT administration using Cre^−; Npm1GL cells as a negative control.
compound,measurement,setting,value
C=C[C@@H]1C[C@]1(NC(=O)[C@@H]1C[C@@H](Oc2ncc(OC)c3ccc(Cl)cc23)CN1C(=O)[C@@H](NC(=O)OC(C)(C)C)C(C)(C)C)C(=O)NS(=O)(=O)C1CC1 [asunaprevir],recombination upon inhibition of NS3 proteolytic activity,[1],efficient recombination
COc1cc(Cc2cnc(N)nc2N)cc(OC)c1OC [trimethoprim],disease induction in the Flp Flt3/Npm1 model,[2],capable of inducing aggressive AML
CC(=O)Nc1cc(Oc2ccc3c(nc(Nc4ccc(F)cc4F)n3C)c2C)ccn1 [CHZ868],"MEP, GMP, and LSK mutant allele burden","[3]; compared to vehicle/ruxolitinib-treated mice, not to the extent seen with Jak2^V617F deletion",Significant reductions
same,Hct,[3],50.3%
same,spleen weights (mean),[3],76 mg
N#CC[C@H](C1CCCC1)n1cc(-c2ncnc3[nH]ccc23)cn1 [ruxolitinib],"down-regulation of STAT5 target gene expression, NES",Jak2^V617F LSKs and MEPs; GSEA of RNA-seq,−0.913
same,"erythroid pathway gene expression (heme metabolism), NES","Jak2^V617F LSKs and MEPs; GSEA of RNA-seq, LSKs",1.45
same,GMP frequency,[4],6.66%
same,MEP frequency,[4],35.3%
same,CD45.2 chimerism in peripheral blood,[3],37.7%
same,mutant cell fraction in LSK stem-cell enriched population (mean),[3],87.6%
same,Hct,[3],85.8%
same,spleen weights (mean),[3],235 mg
same,"expression of Ybx1, Rel. exp",Ybx1,2.52
C=C[C@@H]1C[C@]1(NC(=O)[C@@H]1C[C@@H]2CN1C(=O)[C@H](C(C)(C)C)NC(=O)O[C@@H]1C[C@H]1CCCCCc1nc3ccc(OC)cc3nc1O2)C(=O)NS(=O)(=O)C1CC1.O [grazoprevir],recombination upon inhibition of NS3 proteolytic activity,[1],efficient recombination
same,"peripheral blood counts with GZV treatment, CAG:DreStaPL-ODC mice",[5],"monocytosis, mild anemia and mild thrombocytopenia"
same,"peripheral blood counts with GZV treatment, Vav1:DreStaPL-ODC mice",[5],no significant differences
CC/C(=C(\c1ccccc1)c1ccc(OCCN(C)C)cc1)c1ccccc1 [tamoxifen],"down-regulation of STAT5 target gene expression, NES",Jak2^V617F LSKs and MEPs; GSEA of RNA-seq,−1.51
same,"MAPK activity by RNA-Seq, NES","Jak2^V617F LSKs and MEPs; GSEA of down regulation of KRAS signaling targets, MEPs, vs vehicle",1.35
same,GMP frequency,[4],20.1%
same,MEP frequency,[4],14.2%
same,CD45.2 chimerism in peripheral blood,[3],17.3%
same,mutant cell fraction in LSK stem-cell enriched population (mean),[3],28.7%
same,spleen weights (mean),[3],125 mg
same,"expression of Ybx1, Rel. exp",Ybx1,0.42
same,WBC (mean),[6],7.59 K/uL
same,hematocrit (mean),[6],41.6%
same,platelet (mean),[6],749 K/uL
same,hematologic parameters,[7],normalization
same,peripheral blood mutant cell fraction,[7],reductions
same,overall survival,[8],increase in overall survival
same,WBC counts,[9],significant decrease
same,cKIT+ cells in the peripheral blood,[9],significant decrease
same,survival,[9],no significant difference
same,"phenotypes observed with Ubc:CreER-Jak2^V617F deletion, with tamoxifen in the absence of Jak2^V617F reversal",[10],not observed
4-hydroxytamoxifen [4-OHT],"cell number, Ubc:CreERT2 Npm1^c-Lox-Flt3^GL-ITD cells",[11],reduction in cell number
same,"cell number, FlpoERT2 Npm1^c-Frt Flt3^Frt-ITD cells",[11]; control without Cre-deletable allele,not
same,"cell number, Cre+; Npm1GL cells",[12],significant loss of cells
same,"cell number, Cre-; Npm1GL control cells",[12]; negative control,not observed
